The nature of data set [1]: Diffusion ordered spectroscopy (DOSY), pulse-field gradient NMR. It counts as physicochemical. The method, then:
The diffusion coefficients were measured by pulse-field gradient NMR using the longitudinal eddy-current delay with bipolar pulse pairs pulse sequence with a maximum gradient strength of 53.5 G/cm and 16 values for the gradient strength. The peak intensity I was measured and fit to the Stejskal-Tanner equation: […]
where I0 is the intensity in the absence of the gradient pulse, D is the diffusion coefficient, γ is the proton gyromagnetic ratio, g is the gradient strength, δ is the length of the pulse field gradient pulse (2 ms) and Δ is the diffusion delay (0.1 s).
The […] was calculated from the Stokes-Einstein equation as: […]
where kB is the Boltzmann constant, T is the temperature, and f is the viscosity.
PA materials were mixed (90 mol % of IKVAV PA2+10 mol % FGF2 PAs) and sonicated as described above and then lyophilized. Samples were then dissolved in D2O water and solubilized in 1 equiv. NaOD at a concentration of 6 mM in standard 5 mm NMR tube with 0.25 mM sodium trimethylsilylpropanesulfonate (DSS) as a chemical shift reference and an intensity standard. […] Diffusion coefficients were measured using pulse-field gradient NMR using the stimulated echo pules sequence with a 2 ms gradient pulse and a 100 ms diffusion delay time using a maximum gradient strength of 53 G/cm.

The subject of data set [2] is murine model of severe spinal cord injury (SCI). The data set is described as follows: Angiogenesis at the site of SCI (DiI labelling, BrdU/CD31). It counts as in vivo, mouse. How it is done:
All experiments were conducted at the Simpson Querrey Institute at Northwestern University. 182 CD1 mice (Charles River) were subjects of this study (N=38 Sham, N=38 IKVAV PA2 alone, N=38 IKVAV PA2+FGF2 PA1, N=38 IKVAV PA2+FGF2 PA2, N=12 IKVAV PA1, N=12 Backbone PA, N=6 IKVAV PA4). The age of animals used in the study was in the range of 10-16 weeks. 8 independent in vivo experiments were carried out (injury+PA injection) and each of the 8 experiments had animals of the exact same age which were injected with at least the 4 main treatment groups: Sham, IKVAV PA2 alone, IKVAV PA2+FGF2 PA1, and IKVAV PA2+FGF2 PA2. Animals were anesthetized using 2.5% isoflurane gas with oxygen. […]
PAs (dissolved in sterile NaCl 0.9% solution at 1 wt %) were injected 24 h after SCI using a glass capillary micropipette (Sutter Instruments, Novato, CA) (outer diameter, 100 m) coated with Sigmacote (Sigma-Aldrich) to reduce surface tension as described elsewhere (19). […] The micropipette was lowered to a depth of 750 m measured from the dorsal surface of the cord, and 4-6 μL of the diluted amphiphile solution was injected at 1 L/min. […]
To assess in vitro tubulogenesis and in vivo angiogenesis, an ImageJ (Fiji) script was established to automatically calculate 1) area fraction of blood vessels, 2) blood vessels length, and 3) number of branches. Images were processed, binarized and analyzed. […]

As for C16-A2G2E4GIKVAV [IKVAV PA2], the Rh in data set [1] (calculated from Stokes-Einstein equation) is reported as 1.4 nm. In data set [1] (diffusion coefficient, DOSY), the D is reported as 1.6 ± 0.01 × 10^−10 m^2/s. In addition, the “newly formed blood vessels (number of BrdU+/CD31+ cells)” value in data set [2] (12 weeks after injury) was “very modest but yet significantly increased”. The “vascular area fraction, vascular length, and branching” value in data set [2] (DiI-labelled vessels, transverse sections) is given as “did not differ significantly”.

(Values after patent US20240325548A1, “DYNAMIC BIOACTIVE SCAFFOLDS AND THERAPEUTIC USES THEREOF AFTER CNS INJURY” (Northwestern University, priority 2021, published 2024).)
